Assays:
[1] = molecular target: T1, Bromodomain-containing protein 4 (Homo sapiens, UniProt O60885); experiment: Inhibition of BRD4 BD1 (unknown origin) by TR-FRET assay
[2] = molecular target: T1, Bromodomain-containing protein 4; experiment: Inhibition of BRD4 BD2 (unknown origin) by TR-FRET assay

IC50 [1] [nM]	IC50 [2] [nM]	Structure (SMILES)
10	501	CC(=O)N1CCC[C@@H](Cn2c(-c3cc(C)c(=O)n(C)c3)nc3cc(Br)ccc32)C1
	631	CC(=O)N1CCC[C@@H](Cn2c(-c3cc(C)c(=O)n(C)c3)nc3ccccc32)C1
31.6	501	CC(=O)N1CCC[C@H](Cn2c(-c3cc(C)c(=O)n(C)c3)nc3ccccc32)C1
